Data published in patent US5157123A, “S-(2-thiopyridyl)-L-cysteine, a heterobifunctional crosslinking reagent” (priority 1989, dated 1992).
Structures can show the parent of a compound that is named as a salt.

Key:
[1] = Water solubility of crosslinkers; assay type: physicochemical; conditions: distilled water
[2] = system: human monoclonal IgM antibody 1688; assay: Incorporation of TPCH versus TPMPH into IgM antibody 1688 (periodate oxidation, pyridine-2-thione release at 343 nm); conditions: identical coupling conditions, FIG. 2
Protocol: Human IgM (2.5 mg) in 0.1M sodium acetate, pH 5.5 (1 mg IgM/ml) was oxidized in the presence of 10.7 mg (50 μmoles) NaIO4 and 7 mg (19.8 μmoles) of TPCH. After 20 minutes at 0° C. the reaction mixture was chromatographed on a Sephadex G-25 column to remove access NaIO4 and uncoupled TPCH. The derivatized IgM molecules were eluted with 0.1M sodium phosphate, 0.1M sodium chloride, pH 7.5, and stored at 4° C. The extent of modification was determined to be 17 TPCH molecules per IgM by monitoring the release of pyridine-2-thione at 343 nm during incubation of the derivatized antibody in the presence of 10 mM dithiothreitol as described in J. Carlsson, H. Drevin, and R. Axen, Biochem. J., vol. […]
Human IgM (2.5 mg) was oxidized in 1.25 ml of 0.1M sodium acetate, pH 5.5, in the presence of 5.3 mg sodium periodate with either 6.9 mg (20 μmoles) of TPCH trihydrochloride (M.W.=353.5 daltons) or 4.4 mg (20 μmoles) of TPMPH (M.W.=229.3 daltons) at 0° C. […] The derivatized IgM molecules were eluted with 0.1M sodium phosphate, 0.1 M sodium chloride, pH 7.5 The extent of modification was determined as described above.
Human IgM (2.5 mg) was oxidized in the presence of 0.27 mg sodium periodate under identical conditions as described above. The extent of derivatization was determined after 20 minutes of incubation using the procedure described above.

In the case of `NNC(=O)[C@@H](N)CSSc1ccccn1` [TPCH, S-(2-Thiopyridyl)-L-Cysteine Hydrazide Trihydrochloride], the “water solubility (concentration to which it can be easily dissolved)” value [1] is reported as ≥ 1000 mM.
With `NNC(=O)CCSSc1ccccn1` [TPMPH, S-(2-thiopyridyl)-mercaptopropionic acid hydrazide] the “increase in time required for incorporation of comparable amounts of crosslinker per antibody, versus TPCH” value [2] was ~3 fold and the maximum solubility [1] was 150 mM.
